Here are results for 6 compounds from patent publication US20240216343A1, “ENDOTHELIAL IK AND SK CHANNEL ACTIVATION TO TREAT PULMONARY HYPERTENSION” (UNIVERSITY OF VIRGINIA PATENT FOUNDATION, priority 2023, published 2024).

Each structure is given as a SMILES string. Entries after “also recorded” stand apart in the source; their conditions may differ.

One data set concerns fourth-order PAs. The data set can be described thus: Pressure myography of mouse fourth-order PAs. The text has this: Mouse fourth-order PAs (˜50 μm) were cannulated on glass micropipettes in a pressure myography chamber (The Instrumentation and Model Facility; University of Vermont; Burlington; VT; USA) and pressurized to a physiological pressure of 15 mm Hg (24). Briefly, freshly dissected lungs were placed in ice cold HEPES buffer in a dissection plate. The left lung was stretched and pinned down, with ventral side facing up. First, pulmonary veins, and then the airway were cut open to gain access to the pulmonary arteries underneath. Once PAs were visible, they were gently separated from surrounding tissue (25). Arteries were superfused with bicarbonate-physiological salt solution (PSS; 119 mmol/L NaCl; 4.7 mmol/L KCl; 1.2 mmol/L KH2PO4; 1.2 mmol/L MgCl2 hexahydrate; 2.5 mmol/L CaCl2) dihydrate; 7 mmol/L dextrose; and 24 mmol/L NaHCO3) at 37° ° C. and bubbled with 20% O2/5% CO2 to maintain the pH at 7.4. Approximately 20% PAs from normal mice develop myogenic tone, whereas ˜65% PA from Su+CH mice show myogenic tone at 15 mm Hg. Due to the relatively small percentage of PAs from normal mice showing myogenic tone, we pre-constricted all PAs with 30 nmol/L U46619 (a thromboxane A2 receptor agonist). […] U46619 was added to the chamber immediately, before the arteries could develop myogenic tone. Before measuring vascular reactivity, arteries were treated with NS309 (1 μmol/L), a direct activator of endothelial IK/SK channels, to assess endothelial health. […] Changes in arterial diameter were recorded at a 60-ms frame rate using a charge-coupled device camera and edge-detection software (IonOptix LLC; Westwood; MA; USA) (11, 26). At the end of each experiment, Ca^2+-free PSS (119 mmol/L NaCl; 4.7 mmol/L KCl; 1.2 mmol/L KH2PO4; 1.2 mmol/L MgCl2 hexahydrate; 7 mmol/L dextrose; 24 mmol/L NaHCO3; and 5 mmol/L EGTA) was applied to assess the maximum passive diameter. Percent constriction was calculated by:
[formula] • where Diameterbefore is the diameter of the artery before treatment and Diameterafter is the diameter after treatment. Percent dilation was calculated by:
[formula] • where Diameterbasal is the stable diameter before drug treatment, Diameterdilated is the diameter after drug treatment, and Diameterca-free is the maximum passive diameter.

Another data set relates to large PAs. The following applies: rats exposed to chronic hypoxia; reference (49); cited from earlier work.
Data set [1] concerns Su+CH mouse model of PH. Put plainly: RVSP measurement after acute treatment. The format is in vivo. On the procedure: (§1) PH was induced by exposing C57BL6/J mice to chronic hypoxia (CH; 10% 02: 4 weeks) with concurrent treatment with the receptor tyrosine kinase inhibitor, SU5416 (20 mg·kg^−1), administered subcutaneously (s.c.) once a week (20). SU5416 was dissolved in DMSO/PEG 400 (50/50). Mice were exposed to CH conditions in a vinyl hypoxic chamber (Coy Laboratory Products; Inc. Grass Lake; MI; USA) connected to an auto purge airlock inlet. Oxygen concentration in the glove box was regulated by an oxygen controller and oxygen sensor (Coy Laboratory Products, Inc.). Control mice were maintained in room air for 4 weeks.
(§2) Mice were anesthetized with pentobarbital (50 mg·kg^−1; i.p.), and bupivacaine HCl (100 μL of 0.25% solution; s.c.) was used to numb the dissection site on the mouse. RVSP was measured as an indirect indicator of PAP (18, 21). Mice were cannulated with a Mikro-Tip pressure catheter (SPR-671; Millar Instruments; Houston; TX; USA), connected to a bridge amp (FE221) and a PowerLab 4/35 4-channel recorder (ADInstruments; Colorado Springs; CO; USA), through the external jugular vein into the right ventricle. Right ventricular pressure was acquired and analyzed using LabChart8 software (ADInstruments). In the subgroup of mice treated with SKA-31 (30 mg·kg^−1; i.p.), RVSP was measured before SKA-31 injection and 20 minutes after. A stable 3-minute recording was acquired for all animals, and a 1-minute continuous segment was used for data analysis. Where necessary, traces were digitally filtered using a low-pass filter at a cut-off frequency of 50 Hz. At the end of experiments, mice were euthanized, and their hearts were isolated for right ventricular hypertrophy analysis. Right ventricular hypertrophy was determined by calculating the Fulton index, a ratio of the right ventricular (RV) heart weight over the left ventricular (LV) plus septum (S) weight (RV/LV+S).

In data set [2] the test system is Su+CH mouse model of PH. Put plainly: Chronic treatment: RVSP, Fulton index and PA remodeling (histology, immunostaining). Format: in vivo. On the procedure: as §1
For PA remodeling studies, mice in the experimental group were treated with the IK/SK channel activator, SKA-31 (30 mg·kg^−1; i.p.), twice a day for the final 7 days of Su+CH exposure. Control mice were exposed to Su+CH for 4 weeks but were injected with vehicle instead of SKA-31. At the end of week 4 of Su+CH exposure, mice were euthanized with pentobarbital (90 mg·kg^−1; i.p.; UVA Hospital Pharmacy) and left lungs were perfused with the NO donor and fast-acting vasodilator, SNP (50 μmol/L; Sigma Aldrich), followed by incubation overnight at room temperature with 4% paraformaldehyde (PFA) for histology and immunostaining.
as §2
Isolated left lungs were perfused with PBS containing 50 μmol/L SNP and fixed in 4% PFA overnight at room temperature before paraffin embedding and sectioning. After sectioning paraffinized lungs, sections (5-μm thick) were deparaffinized and incubated in endogenous peroxidase (30%) for 30 minutes at room temperature, followed by a 5-minute wash with double-distilled H2O. For antigen retrieval, sections were microwaved in a citrate-based antigen unmasking solution (Vector Laboratories; Newark; CA; USA) for 20 minutes with brief pauses to avoid boiling. After allowing slides to cool in the antigen unmasking solution for 1 hour at room temperature, sections were permeabilized by incubating with 0.2% Triton-X for 30 minutes on a shaking rocker at room temperature, then blocked by incubating with 0.2% Triton-X, 5% normal donkey serum (ab7475; Abcam; Cambridge; MA; USA) and fish skin gelatin (FSG; Sigma Aldrich) for 1 hour. […]

A short description of data set [3]: Cardiac functional magnetic resonance imaging. The format is in vivo, mouse. The note with it: acute SKA-31 administration.
The conditions of data set [4]: cited from earlier work.
The conditions of data set [5]: reference (33); cited from earlier work.
In a further data set the test system is IK/SK channels. The note with it: reference (37); cited from earlier work.
Data set [6] relates to IK/SK channels in SMCs from PAs. Put plainly: Whole-cell patch-clamp in freshly isolated SMCs from small PAs. The format is cell-based, mouse. The following applies: TRAM-34 1 μmol/L and Apa 300 nmol/L added together after NS309 1 μmol/L; SMCs from control or Su+CH mice. Here is the method:
For SMC isolation (27), arterial segments were transferred to a 12×75 mm borosilicate glass culture tube containing 1 mL dissociation solution (145 mmol/L NaCl; 4 mmol/L KCl; 1 mmol/L MgCl2; 10 mmol/L HEPES; 0.05 mmol/L CaCl2), 10 mmol/L glucose; pH 7.3) and 0.5 mg/mL bovine serum albumin (BSA) and incubated for 10 minutes at room temperature (˜24° C.). The solution was then replaced with 1 mL dissociation solution containing 1 mg/mL papain (Sigma Aldrich) and 0.5 mg/mL dithiothreitol (Sigma Aldrich), and incubation was continued at 37° C. for 20 minutes. […]
Whole-cell currents were measured at room temperature using conventional whole-cell patch-clamp electrophysiology. […] The pipette solution for conventional patch clamp consisted of 10 mmol/L HEPES, 123.2 mmol/L KCl, 10 mmol/L NaCl, 5.5 mmol/L MgCl2, 0.2 mmol/L CaCl2) and 5 mmol/L HEDTA (adjusted to pH 7.2 with 16.8 mm KOH) and contained 3 μm free-Ca^2+ and 1 mmol/L free-Mg^2+, as calculated using the Max-Chelator program (Chris Patton; Stanford University; Stanford; CA; USA). […] Data were acquired using a Multiclamp 700B amplifier connected to a Digidata 1550B system and analyzed using Clampfit 11.1 software (Molecular Devices, San Jose, CA, USA).
NS309-induced ionic currents were measured in freshly isolated SMCs (FIG. 4A) from PAs in whole-cell patch-clamp experiments (FIGS. 4B and 4C).
In general terms: Patch clamp records ionic current or voltage across a cell membrane.

The mark [7] stands for this setting: 30 mg·kg−1 i.p. twice a day for 7 days.

Turning to `NC(=NCCC[C@H](N)C(=O)O)N[N+](=O)[O-]` [L-NNA], the “Constriction of PAs from Su+CH mice” value with fourth-order PAs (L-NNA 100 μmol/L, Su+CH mice) was “unable constrict”. The “Constriction of PAs from N mice” value with fourth-order PAs (L-NNA 100 μmol/L, normoxic mice) was roughly 20%.
Take `CCn1c(=O)n(CC)c2c(Cl)c(Cl)ccc21` [NS4591]: the “Dilatory response of large PAs after chronic hypoxia” value with large PAs is “decreases”.
On to `Nc1ncnc2c1ncn2[C@@H]1O[C@H](COP(=O)(O)OP(=O)(O)OP(=O)(O)O)[C@@H](O)[C@H]1O` [ATP, adenosine triphosphate], for which, in the data set on fourth-order PAs (CH+Su mice), the “Dilation of PAs from CH+Su mice” value was “unable to dilate”.
For the compound `CCCCC[C@H](O)/C=C/[C@@H]1[C@@H](C/C=C\CCCC(=O)O)[C@H]2CO[C@@H]1C2` [U46619], the “Arteries showing a constriction” value with fourth-order PAs (U46619 30 nmol/L, both normal and PH groups) was “More than 95%”.
With `Nc1nc2c(ccc3ccccc32)s1` [SKA-31, naphtho[1,2-d]thiazol-2-ylamine], the “RVSP in Su+CH mice, acute treatment” value with Su+CH mouse model of PH [1] (30 mg·kg−1 i.p., RVSP before and 20 minutes after injection, Su+CH mice) is given as “significantly reduced; also recorded: lowered”. The “RVSP in normal (N) mice, acute treatment” value with Su+CH mouse model of PH [1] (30 mg·kg−1 i.p., normoxic/control mice) was “not in N mice; also recorded: not observed in normal mice; also recorded: not in control mice”. Further, the “PAP in Su+CH mice, acute treatment” value in the data set on Su+CH mouse model of PH [1] (acute SKA-31, Su+CH mice but not control mice) is listed as “lowered”. For the same compound, in the data set on Su+CH mouse model of PH [2] (setting [7]), the “Collagen content of PAs (Masson's Trichrome) in Su+CH mice” value was “reduced”; the “Fulton index (right ventricular hypertrophy) in Su+CH mice, chronic treatment” value is reported as “significantly lowered; also recorded: reduced”; the “α-actin immunostaining of PAs in Su+CH mice” value is “reduced”. Further, the “RVSP in Su+CH mice, chronic treatment” value in the data set on Su+CH mouse model of PH [2] (30 mg·kg−1 i.p. twice a day for 7 days, fourth week of Su+CH) is recorded as “significantly lowered”. For the same compound, the “Pulmonary artery lesions in Su+CH mice, chronic treatment” value in the data set with Su+CH mouse model of PH [2] (chronic SKA-31) is listed as “reduced”. In addition, in data set [3], the Cardiac output result is “does not alter”, the Ejection fraction entry is listed as “does not alter”, the Heart rate result is reported as “does not alter” and the Stroke volume entry was “does not alter”. In data set [4] (reason for in vivo use instead of NS309, reference (33)), the Metabolism result is recorded as “favorable metabolism”. In addition, in data set [4] (references (37, 38)), the Half-life in vivo entry is given as “longer half-life”. In addition, the “Resting systemic blood pressure” value in data set [5] is on record as “lowered”. Also, the “Potency as activator of IK/SK channels relative to NS309” value in the data set on IK/SK channels is on record as “less potent”.
As to `Clc1ccccc1C(c1ccccc1)(c1ccccc1)n1cccn1` [TRAM-34], the “Effect on NS309-induced outward currents in SMCs” value in data set [6] was “did not reduce”. Also, in the data set on fourth-order PAs (TRAM-34 1 μmol/L and Apa 300 nmol/L applied together, not different between N and Su+CH mice), the “Constriction of small PAs” value is roughly 10%.
